Source: US11524003B2, “Alpha-amino esters of hydroxypropylthiazolidine carboxamide derivative and salt form, crystal polymorph thereof” (ObsEva S.A., priority 2016, dated 2022)
Values after ≈ are worked out from the molar mass of the structure shown. Read-outs that look alike come from different tables or passages of the source.

Key:
[1] = Solubility in water, FaSSIF and FeSSIF; assay type: physicochemical
[2] = system: other prostaglandin receptor subtypes; conditions: FP over other subtypes
Protocol: (§1) Selectivity of compound II was tested against all eight prostaglandin receptor subtypes.

[3] = biological target: prostaglandin E receptor 2 (EP2) (Homo sapiens, UniProt P43116); conditions: FP over EP2
Protocol: as §1

[4] = system: proinflammatory proteins (COX-2, p-cPLA2, p-p65, p-p38, p-ERK); test: Western blot of proinflammatory proteins in human myometrial and amnion biopsies
Protocol: FIG. 79a is a Western blot showing the effects of oxytocin, nolasiban, and a combination thereof on the expression of phosphorylated p65 (p-p65), phosphorylated p38 (p-p38), and phosphorylated extracellular signal-regulated kinase (p-ERK) in N=6 term, pre-laboring myometrial biopsies collected from human female subjects undergoing caesarean section delivery. Samples were either unstimulated (“NS”), stimulated with oxytocin (“OT”), treated with nolasiban at a concentration of 1 μM, or treated with both oxytocin and nolasiban at a concentration of 1 μM for the indicated periods of time. A blot against β-actin was performed as a control. FIG. 79b is a Western blot showing the effects of oxytocin and/or varying concentration of compound II, optionally in combination with nolasiban, on the expression of p-p65, p-p38, and p-ERK in N=6 term, pre-laboring myometrial biopsies collected from human female subjects undergoing caesarean section delivery. Samples were either unstimulated (“NS”), stimulated with oxytocin (“OT”), treated with compound II at a concentration of 3 μM, or treated with both oxytocin and compound II at varying concentrations of compound II, both in the presence and absence of nolasiban at a concentration of 1 μM for the indicated periods of time. A blot against β-actin was performed as a control. […]

[5] = system: Caco-2 cell monolayer; test: Bidirectional permeability across Caco-2 cell monolayers; assay type: in vitro ADME, human
Protocol: Compound I was dissolved in HBSS buffer (1% DMSO final concentration) at the concentrations of 1.5, 3 and 6 μM. Each concentration/sampling time was run in duplicate well. The test was performed in a gradient pH: the apical compartment (mucosal) was at pH 6.5, the basolateral compartment (serosal) was at pH 7.4.
Apical to basolateral (A→B, mucosal to serosal) transport: 200 μL of each concentration of compound I was added to the apical compartment and 400 μL of HBSS was added to the basolateral compartment. The plates were incubated at 37° C. An aliquot of the basolateral compartment was sampled after 60 and 120 min (t=60 and t=120). An aliquot of the apical compartment was sampled at the starting time (t=0) and after 120 min. (t=120).
Basolateral to apical (B→A, serosal to mucosal) transport: 400 μL of each concentration of compound I was added to the basolateral compartment and 200 μL of HBSS was added to the apical compartment. The plates were incubated at 37° C. An aliquot of the apical compartment was sampled after 60 and 120 min (t=60 and t=120). An aliquot of the basolateral compartment was sampled at the starting time (t=0) and after 120 min. (t=120). All samples were analyzed by LC/MS monitoring both compound I and the appearance of compound II.
Compound II was dissolved in HBSS buffer (1% DMSO final concentration) at the concentrations of 1.5, 3 and 6 μM. Each concentration/sampling time was run in duplicate well. The test was performed in a gradient pH: the apical compartment (mucosal) was at pH 6.5, the basolateral compartment (serosal) was at pH 7.4.
Apical to basolateral (A→B, mucosal to serosal) transport: 200 μL of each concentration of compound II was added to the apical compartment and 400 μL of HBSS was added to the basolateral compartment. The plates were incubated at 37° C. An aliquot of the basolateral compartment was sampled after 60 and 120 min (t=60 and t=120). An aliquot of the apical compartment was sampled at the starting time (t=0) and after 120 min. (t=120).
Basolateral to apical (B→A, serosal to mucosal) transport: 400 μL of each concentration of compound II was added to the basolateral compartment and 200 μL of HBSS was added to the apical compartment. The plates were incubated at 37° C. An aliquot of the apical compartment was sampled after 60 and 120 min (t=60 and t=120). An aliquot of the basolateral compartment was sampled at the starting time (t=0) and after 120 min. (t=120). All samples were analyzed by LC/MS monitoring compound II.

Sequence of prostaglandin E receptor 2 (EP2) (P43116 whole entry): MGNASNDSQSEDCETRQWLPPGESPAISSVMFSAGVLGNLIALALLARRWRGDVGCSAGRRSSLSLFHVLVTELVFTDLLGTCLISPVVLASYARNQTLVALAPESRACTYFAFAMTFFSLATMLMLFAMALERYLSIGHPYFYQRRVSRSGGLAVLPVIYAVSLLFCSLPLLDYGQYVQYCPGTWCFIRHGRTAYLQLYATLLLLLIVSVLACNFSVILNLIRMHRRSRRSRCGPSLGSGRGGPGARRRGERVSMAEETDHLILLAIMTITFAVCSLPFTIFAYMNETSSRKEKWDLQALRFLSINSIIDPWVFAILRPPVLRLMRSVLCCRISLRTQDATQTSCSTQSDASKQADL

O=C(N[C@@H](CCO)c1ccc(F)cc1)[C@@H]1SCCN1S(=O)(=O)c1ccc(-c2ccccc2)cc1 [Compound II, 3-([1,1′-biphenyl]-4-ylsulfonyl)-N-[1-(4-fluorophenyl)-3-hydroxypropyl]-1,3-thiazolidine-2-carboxamide]
solubility ([1]; FaSSIF, pH 6.5 (fasted state), read-out: Solubility in FaSSIF pH 6.5): 0.4 µg/mL (≈ 0.799 µM) | solubility ([1]; FeSSIF, pH 5.0 (fed state), read-out: Solubility in FeSSIF pH 5.0): 10 µg/mL (≈ 20 µM) | Selectivity against other prostaglandin receptors [2]: higher than 100 fold | Selectivity versus prostaglandin E receptor 2 (EP2) [3]: approximately 10 fold | Expression of proinflammatory proteins [4]: capable of reducing the expression of various proinflammatory proteins | Efflux [5]: No efflux was detected | Passive passage through the Caco-2 monolayer [5]: good passive passage | Passage apical to basolateral ([5]; A→B): good percentage of passage | Permeability from basolateral to apical compartment ([5]; B→A): low rate of permeability
